Where “and” joins values, the source holds several entries; their conditions need not be identical. Identical values can stand only once.
Test system: C57BL/6 mice, Adenocarcinoma 755 sc, tumor weight T/C
Experiment: NCI In Vivo Anticancer Drug Screen. Data for tumor model Adenocarcinoma 755 (subcutaneous) in C57BL/6 mice
Settings: endpoint: mean tumor weight, higher = larger tumour
Procedure: The antitumor activity of compounds was measured in mice bearing transplantable tumors. Survival or tumor size were measured and the results are expressed as the measurement made in the treated group (T) divided by the measurement made in the vehicle treated control group (C). The tumor model used in this assay is Adenocarcinoma 755 (subcutaneous) in C57BL/6 mice

[1] = dose: 1.0 mg/kg/injection, schedule: Q01DX011 (ip), vehicle: saline
[2] = dose: 2.0 mg/kg/injection, schedule: Q01DX011 (ip), vehicle: saline
[3] = dose: 50.0 mg/kg/injection, schedule: Q01DX011 (ip), vehicle: saline
[4] = dose: 100.0 mg/kg/injection, schedule: Q01DX011 (ip), vehicle: saline
[5] = dose: 20.0 mg/kg/injection, schedule: Q01DX011 (ip), vehicle: saline
[6] = dose: 40.0 mg/kg/injection, schedule: Q01DX011 (ip), vehicle: saline
[7] = dose: 0.2 mg/kg/injection, schedule: Q01DX011 (ip), vehicle: saline
[8] = dose: 4.0 mg/kg/injection, schedule: Q01DX011 (ip), vehicle: saline
[9] = dose: 7.5 mg/kg/injection, schedule: Q01DX011 (oral), vehicle: saline
[10] = dose: 8.0 mg/kg/injection, schedule: Q01DX011 (ip), vehicle: saline
[11] = dose: 150.0 mg/kg/injection, schedule: Q02DX006 (ip), vehicle: saline
[12] = dose: 200.0 mg/kg/injection, schedule: Q02DX006 (ip), vehicle: saline
[13] = dose: 10.0 mg/kg/injection, schedule: Q01DX011 (ip), vehicle: saline
[14] = dose: 15.0 mg/kg/injection, schedule: Q01DX011 (ip), vehicle: saline
[15] = dose: 125.0 mg/kg/injection, schedule: Q01DX011 (ip), vehicle: saline
[16] = dose: 225.0 mg/kg/injection, schedule: Q02DX006 (ip), vehicle: water
[17] = dose: 25.0 mg/kg/injection, schedule: Q01DX011 (ip), vehicle: carboxymethylcellulose (CMC)

With c1ccc2nc(-c3cc4ccccc4s3)ccc2c1 the T/C (dose: 300.0 mg/kg/injection, schedule: Q01DX011 (ip), vehicle: saline) was 11 % of control.
With O=C1C(NC(=O)C2CCCCC2)=C(N2CC2)C(=O)C(NC(=O)C2CCCCC2)=C1N1CC1 the T/C (dose: 16.0 mg/kg/injection, schedule: Q01DX009 (ip), vehicle: saline) was 97 % of control, the T/C (dose: 32.0 mg/kg/injection, schedule: Q01DX009 (ip), vehicle: saline) was 56 % of control and the T/C (dose: 64.0 mg/kg/injection, schedule: Q01DX009 (ip), vehicle: saline) was 83 % of control.
NC(=O)c1ccc(N)nc1 was tested, and the T/C [1] was 92 % of control and 94 % of control, the T/C (dose: 1.5 mg/kg/injection, schedule: Q01DX011 (ip), vehicle: saline) was 52 % of control and the T/C [2] was 48 % of control.
CCCCCCCCCNc1ncnc2[nH]ncc12 was tested, and the T/C [3] was 51 % of control and the T/C [4] was 64 % of control.
In the case of Nc1nc(F)nc2c1ncn2C1OC(CO)C(O)C1O (stereo unspecified), the T/C (dose: 2.0 mg/kg/injection, schedule: Q01DX011 (ip), vehicle: carboxymethylcellulose (CMC)) is reported as 87 % of control.
In the case of Clc1nc(Cl)c2[nH]cnc2n1, the T/C [5] is reported as 110 % of control and the T/C [6] is reported as 82 % of control.
S=c1nc[nH]c2nc[nH]c12.[Cd] was tested, and the T/C (dose: 0.1 mg/kg/injection, schedule: Q01DX011 (ip), vehicle: saline) was 60 % of control, the T/C [7] was 76 % of control and the T/C (dose: 0.4 mg/kg/injection, schedule: Q01DX011 (ip), vehicle: saline) was 60 % of control. For the same compound, the T/C (dose: 0.8 mg/kg/injection, schedule: Q01DX011 (ip), vehicle: saline) was 49 % of control.
C=CC(CN1CC1)OC(C)=O (stereo unspecified) was tested, and the T/C (dose: 1.0 mg/kg/injection, schedule: Q01DX011 (oral), vehicle: saline) was 63 % of control, the T/C (dose: 1.0 mg/kg/injection, schedule: Q#A X022 (ip), vehicle: saline) was 92 % of control and the T/C [2] was 66 % of control. The T/C (dose: 2.0 mg/kg/injection, schedule: Q01DX011 (oral), vehicle: saline) was 49 % of control, the T/C (dose: 2.0 mg/kg/injection, schedule: Q#A X022 (ip), vehicle: saline) was 43 % of control and the T/C (dose: 3.25 mg/kg/injection, schedule: Q01DX011 (oral), vehicle: saline) was 38 % of control. The T/C [8] was 38 % of control, the T/C (dose: 4.0 mg/kg/injection, schedule: Q01DX011 (oral), vehicle: saline) was 26 % of control and the T/C (dose: 4.0 mg/kg/injection, schedule: Q01DX011 (sc), vehicle: saline) was 14 % of control. For the same compound, the T/C (dose: 6.0 mg/kg/injection, schedule: Q03DX004 (ip), vehicle: saline) was 88 % of control, the T/C [9] was 15 % of control and the T/C [10] was 17 % of control. The T/C (dose: 8.0 mg/kg/injection, schedule: Q01DX011 (oral), vehicle: saline) was 21 % of control, the T/C (dose: 8.0 mg/kg/injection, schedule: Q01DX011 (sc), vehicle: saline) was 8 % of control and the T/C (dose: 12.0 mg/kg/injection, schedule: Q03DX004 (ip), vehicle: saline) was 59 % of control. The T/C (dose: 16.0 mg/kg/injection, schedule: Q01DX011 (oral), vehicle: saline) was 5 % of control and the T/C (dose: 24.0 mg/kg/injection, schedule: Q03DX004 (ip), vehicle: saline) was 11 % of control.
With N/C(=N\N=C\c1cccc([N+](=O)[O-])c1)N[N+](=O)[O-] the T/C [11] was 24 % of control and the T/C [12] was 41 % of control.
For CCCNc1ncnc2[nH]ncc12, the T/C [13] was 62 % of control and the T/C [14] was 39 % of control.
With O=CNC(Cc1ccc(N(CCCl)CCCl)cc1)C(=O)O (stereo unspecified) the T/C (dose: 40.0 mg/kg/injection, schedule: Q01DX011 (ip), vehicle: carboxymethylcellulose (CMC)) was 39 % of control and the T/C (dose: 80.0 mg/kg/injection, schedule: Q01DX011 (ip), vehicle: carboxymethylcellulose (CMC)) was 1 % of control.
For C=CC(COC(C)=O)N1CC1 (stereo unspecified), the T/C (dose: 1.87 mg/kg/injection, schedule: Q01DX011 (oral), vehicle: saline) was 107 % of control, the T/C (dose: 3.75 mg/kg/injection, schedule: Q01DX011 (oral), vehicle: saline) was 56 % of control and the T/C [9] was 70 % of control and 80 % of control.
In the case of Nc1c(Br)cc2c(c1Br)Cc1cc([N+](=O)[O-])ccc1-2, the T/C (dose: 31.3 mg/kg/injection, schedule: Q01DX011 (ip), vehicle: saline) is reported as 17 % of control and the T/C [15] is reported as 17 % of control.
CCCCNc1ncnc2nc[nH]c12 was tested, and the T/C (dose: 30.0 mg/kg/injection, schedule: Q01DX011 (ip), vehicle: carboxymethylcellulose (CMC)) was 91 % of control.
CNC=O was tested, and the T/C (dose: 25.0 mg/kg/injection, schedule: Q01DX011 (ip), vehicle: saline) was 92 % of control, the T/C [3] was 112 % of control and the T/C [4] was 64 % of control and 82 % of control. For the same compound, the T/C [15] was 98 % of control, the T/C (dose: 175.0 mg/kg/injection, schedule: Q02DX006 (ip), vehicle: water) was 40 % of control and the T/C (dose: 200.0 mg/kg/injection, schedule: Q01DX011 (ip), vehicle: saline) was 9 % of control and 30 % of control. For the same compound, the T/C [16] was 56 % of control.
For Clc1ncnc2c1ncn2C1CCCC1, the T/C [17] was 79 % of control, the T/C (dose: 50.0 mg/kg/injection, schedule: Q01DX011 (ip), vehicle: carboxymethylcellulose (CMC)) was 118 % of control and the T/C (dose: 75.0 mg/kg/injection, schedule: Q01DX011 (ip), vehicle: carboxymethylcellulose (CMC)) was 71 % of control. For the same compound, the T/C (dose: 100.0 mg/kg/injection, schedule: Q01DX011 (ip), vehicle: carboxymethylcellulose (CMC)) was 18 % of control.
For COC(=O)C(N)CCl (stereo unspecified), the T/C [11] was 74 % of control and the T/C [12] was 83 % of control.
In the case of O=C(O)CCCCC1NC(=O)CS1 (stereo unspecified), the T/C [16] is reported as 91 % of control and the T/C (dose: 275.0 mg/kg/injection, schedule: Q02DX006 (ip), vehicle: water) is reported as 101 % of control.
O=C(O)CCCc1ccc(N(CCCl)CCCl)cc1 was tested, and the T/C [1] was 73 % of control, the T/C [8] was 80 % of control and the T/C [10] was 51 % of control. The T/C (dose: 16.0 mg/kg/injection, schedule: Q01DX011 (ip), vehicle: saline) was 98 % of control.
Cn1cnc([N+](=O)[O-])c1Sc1nc(N)nc2nc[nH]c12 was tested, and the T/C (dose: 5.0 mg/kg/injection, schedule: Q01DX011 (oral), vehicle: saline) was 2 % of control.
Nc1nc(=O)[nH]c2n[nH]nc12 was tested, and the T/C (dose: 5.0 mg/kg/injection, schedule: Q01DX011 (ip), vehicle: carboxymethylcellulose (CMC)) was 82 % of control, the T/C (dose: 10.0 mg/kg/injection, schedule: Q01DX011 (ip), vehicle: carboxymethylcellulose (CMC)) was 79 % of control and the T/C [17] was 64 % of control.
In the case of CSc1ncnc2c1ncn2C1OC(CO)C(O)C1O (stereo unspecified), the T/C (dose: 5.0 mg/kg/injection, schedule: Q01DX011 (ip), vehicle: saline) is reported as 78 % of control, the T/C [13] is reported as 50 % of control and the T/C [14] is reported as 67 % of control.
With CCNc1ncnc2[nH]ncc12 the T/C [14] was 13 % of control and the T/C [5] was 4 % of control.
For Cn1ncc2c(N)ncnc21, the T/C (dose: 20.0 mg/kg/injection, schedule: Q02DX006 (ip), vehicle: other) was 47 % of control and the T/C (dose: 40.0 mg/kg/injection, schedule: Q02DX006 (ip), vehicle: other) was 28 % of control.
For COC1=C(N)C(=O)c2nc(-c3nc(C(=O)O)c(C)c(-c4ccc(OC)c(OC)c4O)c3N)ccc2C1=O, the T/C (dose: 0.06 mg/kg/injection, schedule: Q01DX011 (ip), vehicle: saline) was 84 % of control, the T/C (dose: 0.09 mg/kg/injection, schedule: Q01DX011 (ip), vehicle: saline) was 77 % of control and the T/C (dose: 0.13 mg/kg/injection, schedule: Q01DX011 (ip), vehicle: saline) was 64 % of control. For the same compound, the T/C [7] was 38 % of control.
For Nc1nc(=S)c2ncn(C3OC(COC(=O)c4ccccc4)C(OC(=O)c4ccccc4)C3OC(=O)c3ccccc3)c2[nH]1 (stereo unspecified), the T/C (dose: 3.1 mg/kg/injection, schedule: Q01DX011 (ip), vehicle: methylcellulose (MC)) was 90 % of control, the T/C (dose: 6.25 mg/kg/injection, schedule: Q01DX011 (ip), vehicle: methylcellulose (MC)) was 62 % of control and the T/C (dose: 12.5 mg/kg/injection, schedule: Q01DX011 (ip), vehicle: methylcellulose (MC)) was 77 % of control. For the same compound, the T/C (dose: 25.0 mg/kg/injection, schedule: Q01DX011 (ip), vehicle: methylcellulose (MC)) was 16 % of control.
With CS(=O)(=O)OCCCOS(C)(=O)=O the T/C (dose: 15.0 mg/kg/injection, schedule: Q01DX011 (ip), vehicle: methylcellulose (MC)) was 83 % of control and the T/C (dose: 30.0 mg/kg/injection, schedule: Q01DX011 (ip), vehicle: methylcellulose (MC)) was 35 % of control.
For CC(C)Sc1nc(N)nc2nc[nH]c12, the T/C [4] was 7 % of control.
In the case of Nc1ncnc2n[nH]nc12, the T/C [5] is reported as 60 % of control, the T/C (dose: 30.0 mg/kg/injection, schedule: Q01DX011 (ip), vehicle: saline) is reported as 85 % of control and the T/C [6] is reported as 46 % of control.
For CSc1nc(N)nc2nc[nH]c12, the T/C [13] was 1 % of control and the T/C [14] was 1 % of control.

— PubChem BioAssay AID218 (DTP/NCI, 2004)
